Legend:
AmpC = AmpC (Escherichia coli, UniProt P00811); format: biochemical
TEM-1 = TEM-1 (Escherichia coli, UniProt P62593); format: biochemical
TEM-30 R244S = TEM-30 R244S (Escherichia coli, UniProt P62593, R241S); format: biochemical; conditions: 4 vs 5 on TEM-30
CTX-M-9 [1] = molecular target: T1, CTX-M-9 (Escherichia coli, UniProt Q9L5C8); format: biochemical; conditions: class A
[2] = data not shown
CTX-M-9 [3] = molecular target: T1, CTX-M-9; conditions: read-out: affinity toward CTX-M-9 (Ki); cited from earlier work

With CC(=O)/C=C/c1c(B(O)O)sc2ccccc12 [Compound 4] the “times less active vs AmpC” value (AmpC) was 8 times, the “times less active vs class A” value (TEM-1) was 125 times and the “change of binding vs TEM-30 with respect to compound 5” value (TEM-30 R244S) was “less than 1 fold”.
In the case of O=C(O)/C=C/c1c(B(O)O)sc2ccccc12 [Compound 5, 3-(2-carboxyvinyl)benzo(b)thiophene-2-boronic acid], the “gain in affinity vs TEM-1 with respect to starting lead 1” value (TEM-1; class A) is reported as 1250 fold, the “improvement of binding energy vs TEM-1” value (TEM-1; moving from 1 to 5) is reported as 2.8 kcal/mol and the “gain in affinity vs CTX with respect to starting lead 1” value (CTX-M-9 [1]) is reported as 1250 fold. The “stability in microbiology assay conditions over time” value [2] was “unstable”.
In the case of O=C(Cc1cccs1)N[C@H](B(O)O)c1cccc(C(=O)O)c1 [SMS2, (1R)-1-(2-thienylacetylamino)-1-(3-carboxyphenyl)methylboronic acid], the Ki (CTX-M-9 [3]) is listed as 578 nM.

— PMC4079326 (Journal of Medicinal Chemistry, 2014)
